In brackets after ≈: the same amount, converted by molar mass.
Assay: Solubility in water at 25° C.
Conditions: 25° C.

Solubility in water at 25° C. [mg/mL]	Structure (SMILES)
1.7 (≈ 10.2 mM)	CC12CCC(C(=O)C1=O)C2(C)C (stereo not drawn) [CQ, d1-camphorquinone]
60	Cc1cc(C)c(C(=O)P(=O)(O)C(=O)c2c(C)cc(C)cc2C)c(C)c1 [BAPO-ONa, sodium bis(2,4,6-trimethylbenzoyl)phosphine oxide]

Structure (SMILES)	Solubility in water at 25° C. [mg/mL]
Cc1cc(C)c(C(=O)P(=O)(c2ccccc2)c2ccccc2)c(C)c1 [TMDPO, 2,4,6-trimethylbenzoykliphenylphosphine oxide, reference compound]	< 1

Same assay, conditions: 25 °C

Structure (SMILES)	solubility [mg/mL]
Cc1cc(C)c(C(=O)P(=O)(O)c2ccccc2)c(C)c1 [Li-TPO, lithium (2,4,6-trimethylbenzoyl)phenylphosphine oxide]	45 (≈ 156 mM)

Same assay, conditions: 25 °C, Solubility in water at 25° C.

Structure (SMILES)	solubility [mg/mL]
Cc1cc(C)c(C(=O)P(=O)(O)c2ccccc2)c(C)c1 [Na-TPO]	28 (≈ 97.1 mM)
COCCOCCOCC(=O)Nc1c(C)cc(C)c(C(=O)P(=O)(C(=O)c2c(C)cc(C)c(NC(=O)COCCOCCOC)c2C)c2ccccc2)c1C [BAPO-A1, reference compound]	< 10
COCCOCCOC(=O)Nc1c(C)cc(C)c(C(=O)P(=O)(c2ccccc2)c2ccccc2)c1C [TMDPO-A1, reference compound]	< 10

Now from value to compound:

solubility [mg/mL]	Structure (SMILES)
52 (≈ 145 mM)	Cc1cc(C)c(C(=O)P(=O)(O)C(=O)c2c(C)cc(C)cc2C)c(C)c1 [BAPO-OLi, lithium bis(2,4,6-trimethylbenzoyl)phosphine oxide]
< 1	Cc1cc(C)c(C(=O)P(=O)(C(=O)c2c(C)cc(C)cc2C)c2ccccc2)c(C)c1 [BAPO, bis(2,4,6-trimethylbenzoyl)phenylphosphine oxide, reference compound]

From patent US11452674B2, “Non-solvent dental adhesive composition” (KURARAY NORITAKE DENTAL INC., priority 2017, dated 2022)
